Measurements from patent publication US9688642B2, “Substituted pyrazines as GPR40 agonists” (Janssen Pharmaceutica NV, priority 2014, dated 2017).
pEC50: −log10 of the molar value. Several values for one entry are separate records, joined by “and”; a condition that tells them apart may be missing. Equal entries are not always repeated.

Columns and labels:
human GPR40 = human GPR40 (Homo sapiens (Human), UniProt O14842); assay: GPR40 calcium flux assay, HEK293 cells stably expressing human GPR40; type: cell-based; conditions: transfected HEK293 cells stably expressing human GPR40; individual determinations listed; read-out: hGPR40 Ca2+ Assay EC50
Procedure: (§1) Compounds were tested in a calcium flux assay using transfected HEK293 cells stably expressing either human GPR40 or rat GPR40. Human GPR40 expressing cells were cultured in DMEM-High Glucose media supplemented with 10% fetal bovine serum, 1×L-Glutamine, 1× Penicillin/Streptomycin and 500 μg/mL G418. Rat GPR40 expressing cells were cultured in DMEM-High Glucose media supplemented with 10% fetal bovine serum and 1 μg/mL puromycin. Cells were plated into poly-D-lysine coated 384-well plates and cultured overnight in a 37° C. humidified tissue culture incubator under 5% CO2/90% O2 atmosphere. On the day of the experiment, the culture media was replaced with assay buffer (HBSS, 20 mM HEPES, 0.1% BSA) and the cells incubated at 37° C. for 1 h. Calcium-sensitive fluorescent dye (Fluo 8 No-Wash Calcium Dye, ABD Bioquest) was then added and the cells incubated for another 30 min at 37° C. followed by 15 min at room temperature while protected from the light. The cell plate and a plate of diluted compounds of Formula (I) were loaded into a fluorescent plate reader that added compounds onto the cells while measuring the fluorescence intensity of each well. The plate reader recorded fluorescence intensity at 1 second intervals for 8 min and provided the data for analysis in an Excel format. EC50 values were calculated using Prism (GraphPad) software.

rat GPR40 = rat GPR40 (Rattus norvegicus (Rat), UniProt Q8K3T4); assay: GPR40 calcium flux assay, HEK293 cells stably expressing rat GPR40; type: cell-based; conditions: transfected HEK293 cells stably expressing rat GPR40; individual determinations listed; read-out: rGPR40 Ca2+ Assay EC50
Procedure: as §1

rat GPR40, sequence (Q8K3T4 whole entry): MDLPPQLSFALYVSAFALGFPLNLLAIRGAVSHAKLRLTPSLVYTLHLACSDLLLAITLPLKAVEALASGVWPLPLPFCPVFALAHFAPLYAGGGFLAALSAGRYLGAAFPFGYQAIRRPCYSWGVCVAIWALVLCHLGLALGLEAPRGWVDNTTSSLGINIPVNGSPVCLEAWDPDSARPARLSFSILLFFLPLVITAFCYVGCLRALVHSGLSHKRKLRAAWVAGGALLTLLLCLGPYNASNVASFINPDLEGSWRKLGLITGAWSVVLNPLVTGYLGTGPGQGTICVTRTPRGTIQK
human GPR40, sequence (O14842 whole entry): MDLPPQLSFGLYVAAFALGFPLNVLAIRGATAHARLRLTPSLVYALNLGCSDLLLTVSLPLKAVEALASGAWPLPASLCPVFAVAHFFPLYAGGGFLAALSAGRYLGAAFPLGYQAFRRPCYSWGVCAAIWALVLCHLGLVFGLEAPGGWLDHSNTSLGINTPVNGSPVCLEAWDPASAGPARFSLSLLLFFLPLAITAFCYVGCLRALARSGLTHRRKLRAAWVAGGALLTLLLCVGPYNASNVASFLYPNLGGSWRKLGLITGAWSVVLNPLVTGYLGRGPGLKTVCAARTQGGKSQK

Compound	pEC50 (human GPR40)	pEC50 (rat GPR40)	EC50 (rat GPR40)	EC50 (human GPR40)
COc1ccc(F)c(-c2ncc(COc3cccc([C@@H](CC(=O)O)C4CC4)c3)nc2CC(C)(C)C)c1 [Cpd 1, (3S)-3-cyclopropyl-3-[3-[[6-(2,2-dimethylpropyl)-5-(2-fluoro-5-methoxy-phenyl)pyrazin-2-yl]methoxy]phenyl]propanoic acid]	8.70	7.41 and 7.60	–	–
CCCCc1nc(COc2cccc([C@@H](CC(=O)O)C3CC3)c2)cnc1-c1cc(OC)ccc1F [Cpd 3, (3S)-3-[3-[[6-butyl-5-(2-fluoro-5-methoxy-phenyl)pyrazin-2-yl]methoxy]phenyl]-3-cyclopropyl-propanoic acid]	8.52 and 8.70	7.48 and 7.59	–	–
COc1ccc(F)c(-c2ncc(COc3cccc([C@@H](CC(=O)O)C4CC4)c3)nc2OCC(C)(C)C)c1 [Cpd 4, (3S)-3-cyclopropyl-3-[3-[[6-(2,2-dimethylpropoxy)-5-(2-fluoro-5-methoxy-phenyl)pyrazin-2-yl]methoxy]phenyl]propanoic acid]	8.05 and 8.52 and 8.70	–	13 nM (2×) and 9 nM	–
COc1ccc(F)c(-c2ncc(COc3cccc([C@@H](CC(=O)O)C4CC4)c3)nc2CC(C)C)c1 [Cpd 5, (3S)-3-cyclopropyl-3-[3-[[5-(2-fluoro-5-methoxy-phenyl)-6-isobutyl-pyrazin-2-yl]methoxy]phenyl]propanoic acid]	8.52 and 8.70	7.92 and 8.00	–	–
COc1ccc(F)c(-c2ncc(COc3cccc([C@@H](CC(=O)O)C4CC4)c3)nc2N2CC3(CCC3)C2)c1 [Cpd 6, (3S)-3-[3-[(6-[2-azaspiro[3.3]heptan-2-yl]-5-(2-fluoro-5-methoxyphenyl)pyrazin-2-yl)methoxy]phenyl]-3-cyclopropylpropanoic acid]	8.30 and 8.40	7.77 and 7.85	–	–
COc1ccc(F)c(-c2ncc(COc3cccc([C@@H](CC(=O)O)C4CC4)c3)nc2OC2CCCCC2)c1 [Cpd 7, (3S)-3-[3-[[6-(cyclohexoxy)-5-(2-fluoro-5-methoxy-phenyl)pyrazin-2-yl]methoxy]phenyl]-3-cyclopropyl-propanoic acid]	8.15 and 8.22	7.54 and 7.57	–	–
COc1cc(-c2ncc(COc3cccc([C@@H](CC(=O)O)C4CC4)c3)nc2OC2CCCCC2)c(F)cn1 [Cpd 9, (3S)-3-[3-[[6-(cyclohexoxy)-5-(5-fluoro-2-methoxy-4-pyridyl)pyrazin-2-yl]methoxy]phenyl]-3-cyclopropyl-propanoic acid]	8.15	7.70 and 7.80	–	–
COc1ccc(F)c(-c2ncc(COc3cccc([C@@H](CC(=O)O)C4CC4)c3)nc2-c2cc(C)cc(C)c2)c1 [Cpd 10, (3S)-3-cyclopropyl-3-[3-[[6-(3,5-dimethylphenyl)-5-(2-fluoro-5-methoxy-phenyl)pyrazin-2-yl]methoxy]phenyl]propanoic acid]	8.10 and 8.15	7.48 and 7.54	–	–
COc1cc(-c2ncc(COc3cccc([C@@H](CC(=O)O)C4CC4)c3)nc2C=C(C)C)c(F)cn1 [Cpd 11, (3S)-3-cyclopropyl-3-[3-[[5-(5-fluoro-2-methoxy-4-pyridyl)-6-(2-methylprop-1-enyl)pyrazin-2-yl]methoxy]phenyl]propanoic acid]	7.96 and 8.15	7.54 and 7.64	–	–
COc1cc(-c2ncc(COc3cccc([C@@H](CC(=O)O)C4CC4)c3)nc2OCC(C)C)c(F)cn1 [Cpd 12, (3S)-3-cyclopropyl-3-[3-[[5-(5-fluoro-2-methoxy-4-pyridyl)-6-isobutoxy-pyrazin-2-yl]methoxy]phenyl]propanoic acid]	7.96 and 8.10	7.62 and 7.68	–	–
COc1ccc(F)c(-c2ncc(COc3cccc([C@@H](CC(=O)O)C4CC4)c3)nc2OCC(C)C)c1 [Cpd 14, (3S)-3-cyclopropyl-3-[3-[[5-(2-fluoro-5-methoxy-phenyl)-6-isobutoxy-pyrazin-2-yl]methoxy]phenyl]propanoic acid]	–	7.80 and 7.49 and 7.51 and 7.68 and 7.74	–	10 nM (2×) and 9 nM
COc1cc(-c2ncc(COc3cccc([C@@H](CC(=O)O)C4CC4)c3)nc2C2=CCCC2(C)C)c(F)cn1 [Cpd 15, (3S)-3-cyclopropyl-3-[3-[[6-(5,5-dimethylcyclopenten-1-yl)-5-(5-fluoro-2-methoxy-4-pyridyl)pyrazin-2-yl]methoxy]phenyl]propanoic acid]	7.82 and 8.15	7.68 and 7.82	–	–
COc1cc(-c2ncc(COc3cccc([C@@H](CC(=O)O)C4CC4)c3)nc2OC2CCCC2)c(F)cn1 [Cpd 16, (3S)-3-[3-[[6-(cyclopentoxy)-5-(5-fluoro-2-methoxy-4-pyridyl)pyrazin-2-yl]methoxy]phenyl]-3-cyclopropyl-propanoic acid]	7.96 and 8.00	7.42 and 7.44	–	–
COc1ccc(F)c(-c2ncc(COc3cccc([C@@H](CC(=O)O)C4CC4)c3)nc2-c2ccccc2)c1 [Cpd 18, (3S)-3-cyclopropyl-3-[3-[[5-(2-fluoro-5-methoxy-phenyl)-6-phenyl-pyrazin-2-yl]methoxy]phenyl]propanoic acid]	7.89 and 8.00	6.98 and 7.17	–	–
COc1ccc(F)c(-c2ncc(COc3cccc([C@@H](CC(=O)O)C4CC4)c3)nc2OC2CCC2)c1 [Cpd 19, (3S)-3-[3-[[6-(cyclobutoxy)-5-(2-fluoro-5-methoxy-phenyl)pyrazin-2-yl]methoxy]phenyl]-3-cyclopropyl-propanoic acid]	7.85 and 7.96	7.15 and 7.31	–	–
COc1ccc(F)c(-c2ncc(COc3cccc([C@@H](CC(=O)O)C4CC4)c3)nc2-c2cccc(C)c2)c1 [Cpd 20, (3S)-3-cyclopropyl-3-[3-[[5-(2-fluoro-5-methoxy-phenyl)-6-(m-tolyl)pyrazin-2-yl]methoxy]phenyl]propanoic acid]	7.82 and 7.96	7.05 and 7.11	–	–
COc1ccc(F)c(-c2ncc(COc3cccc([C@@H](CC(=O)O)C4CC4)c3)nc2OCC2CC2)c1 [Cpd 21, (3S)-3-cyclopropyl-3-[3-[[6-(cyclopropylmethoxy)-5-(2-fluoro-5-methoxy-phenyl)pyrazin-2-yl]methoxy]phenyl]propanoic acid]	7.77 and 7.92	7.19 and 7.24	–	–
COc1ccc(F)c(-c2ncc(COc3cccc([C@@H](CC(=O)O)C4CC4)c3)nc2N2CCCCC2)c1 [Cpd 22, (3S)-3-cyclopropyl-3-[3-[[5-(2-fluoro-5-methoxy-phenyl)-6-(1-piperidyl)pyrazin-2-yl]methoxy]phenyl]propanoic acid]	7.74 and 7.92	7.28 and 7.34 and 7.37 and 7.51	–	–
COc1ccc(F)c(-c2ncc(COc3cccc([C@@H](CC(=O)O)C4CC4)c3)nc2-c2cccc(C(C)C)c2)c1 [Cpd 23, (3S)-3-cyclopropyl-3-[3-[[5-(2-fluoro-5-methoxy-phenyl)-6-(3-isopropylphenyl)pyrazin-2-yl]methoxy]phenyl]propanoic acid]	7.64 and 7.85	7.24 and 7.30	–	–
COc1ccc(F)c(-c2ncc(COc3cccc([C@@H](CC(=O)O)C4CC4)c3)nc2OC2CC(C)(C)CC(C)(C)C2)c1 [Cpd 24, (3S)-3-cyclopropyl-3-[3-[[5-(2-fluoro-5-methoxy-phenyl)-6-(3,3,5,5-tetramethylcyclohexoxy)pyrazin-2-yl]methoxy]phenyl]propanoic acid]	7.62 and 7.80 and 7.40	6.73 and 6.75 and 6.74	–	–
COc1ccc(F)c(-c2ncc(COc3cccc([C@@H](CC(=O)O)C4CC4)c3)nc2-c2ccc(C(C)C)cc2)c1 [Cpd 25, (3S)-3-cyclopropyl-3-[3-[[5-(2-fluoro-5-methoxy-phenyl)-6-(4-isopropylphenyl)pyrazin-2-yl]methoxy]phenyl]propanoic acid]	7.64 and 7.74	7.35 and 7.40	–	–
COc1ccc(F)c(-c2ncc(COc3cccc([C@@H](CC(=O)O)C4CC4)c3)nc2OC2CC(C)(C)OC(C)(C)C2)c1 [Cpd 26, (3S)-3-cyclopropyl-3-[3-[[5-(2-fluoro-5-methoxy-phenyl)-6-(2,2,6,6-tetramethyltetrahydropyran-4-yl)oxy-pyrazin-2-yl]methoxy]phenyl]propanoic acid]	7.68	6.95 and 6.97	–	–
COc1ccc(F)c(-c2ncc(COc3cccc([C@@H](CC(=O)O)C4CC4)c3)nc2OC2CCCCCC2)c1 [Cpd 27, (3S)-3-[3-[[6-(cycloheptoxy)-5-(2-fluoro-5-methoxy-phenyl)pyrazin-2-yl]methoxy]phenyl]-3-cyclopropyl-propanoic acid]	7.55 and 7.68	7.32 and 7.47	–	–
COc1cc(-c2ncc(COc3cccc([C@@H](CC(=O)O)C4CC4)c3)nc2-c2ccc(C)s2)c(F)cn1 [Cpd 28, (3S)-3-cyclopropyl-3-[3-[[5-(5-fluoro-2-methoxy-4-pyridyl)-6-(5-methyl-2-thienyl)pyrazin-2-yl]methoxy]phenyl]propanoic acid]	7.59 and 7.64	7.24 and 7.27	–	–
COc1ccc(F)c(-c2ncc(COc3cccc([C@@H](CC(=O)O)C4CC4)c3)nc2OC(C)C)c1 [Cpd 29, (3S)-3-cyclopropyl-3-[3-[[5-(2-fluoro-5-methoxy-phenyl)-6-isopropoxy-pyrazin-2-yl]methoxy]phenyl]propanoic acid]	7.41 and 7.52 and 7.68 and 7.59 and 7.64	–	73 nM (2×) and 56 nM and 98 nM and 62 nM	–
COc1cc(-c2ncc(COc3cccc([C@@H](CC(=O)O)C4CC4)c3)nc2C2=CCCC2(C)C)ccn1 [Cpd 31, (3S)-3-cyclopropyl-3-[3-[[6-(5,5-dimethylcyclopenten-1-yl)-5-(2-methoxy-4-pyridyl)pyrazin-2-yl]methoxy]phenyl]propanoic acid]	7.49 and 7.59	6.99 and 7.18	–	–
